In patent US12600715B2, “Soluble guanylate cyclate activators for treating systemic sclerosis” (Boehringer Ingelheim International GmbH, priority 2022, dated 2026):
Entries after “also recorded” stand apart in the source; their conditions may differ. Where two headings read alike, the source gives them in different places.

Key:
[1] = test system: platelet-rich plasma (PRP) from healthy donor volunteers; assay: Activation of PRP by ADP and CXCL4 detection by ELISA; type: cell-based, human; details: for ADP-induced CXCL4 production: PRP of 10 donors
Experimental: • Compound 114 (sample ID: 30295026, batch: 5) • EX0076637 (sample ID: 17810950, batch: 5) • Nintedanib esilate (Boehringer Ingelheim, Manufacture #67653, lot #1078235) • EX0000076 (sample ID: 15614118, batch: 1) • Blood from healthy donor volunteers • Plastic blood collection tubes with sodium citrate (BD biosciences, 363083) • 50 ml conical tube (Corning, 430828) • BSA solution, 30% in saline, fatty acid free, aseptically filled (Sigma, A9205) • ADP (Sigma, 01905-250MG-F) • Tyrode's buffer (Sigma, T2397) • HEPES (Gibco, 15630-080) • DMSO (Sigma, D2650) • 1 ml deep well plate (Thermo Scientific, 260251) • Sterile 0.22 um PVDF filter plate (Millipore, MAGVS2210) • 96 well microplate (Thermo Scientific, 249946) • CXCL4 ELISA kit (Abcam, ab189573 and R&D systems, DPF40)
Buffer preparation: HEPES-Tyrode BSA buffer: Tyrode's buffer supplemented with 0.35% BSA and 5 mM HEPES.
Generating platelet-rich plasma (PRP): Blood is collected from healthy donor volunteers, into plastic sodium citrate tubes. The first two collected tubes are discarded. The remaining blood is processed within 30 mins of blood drawing. The blood is poured into 50 ml conical tubes without exceeding 35 ml per tube and centrifuged at 200×g for 16 minutes at room temperature with acceleration set at half of maximum speed and deceleration off. After centrifugation, the top layer (PRP) is carefully transferred to a new tube by avoiding the buffy coat. The PRP is rested at room temperature for 5-15 minutes. The PRP is then ready to use for experiment as described in protocol below.
Preparation of Compound: 5.2 mg of Compound 114 is dissolved in […] of 100% DMSO at a concentration of 20 mM. The compound solution is then diluted to 10 mM in 100% DMSO. 10 mM of the compound solution is then diluted to 1 mM and 100 μM in 100% DMSO and then secondarily diluted to 100 μM, 10 μM, and 1 μM in HEPES-Tyrode BSA buffer, making 10× stock solutions.
Preparation of Compound 114 and EX 76637: 5.2 mg of Compound 114 is dissolved in […] of 100% DMSO at a concentration of 20 mM. 2.3 mg of EX 76637 is dissolved in 109 μl of 100% DMSO at a concentration of 50 mM. The compound solution is then diluted to 10 mM in 100% DMSO. 10 mM of the compound solution is then diluted to 1 mM and […] in 100% DMSO and then secondarily diluted to 100 μM, 10 μM, and 1 μM in HEPES-Tyrode BSA buffer, making 10× stock solutions.
Preparation of nintedanib: 2.9 mg of nintedanib is dissolved in 446.3 μl of 100% DMSO at a concentration of 10 mM. The compound solution is then diluted to 100 μM in 100% DMSO. 100 μM of the compound solution is then diluted to […] in HEPES-Tyrode BSA buffer, making 10× stock solutions.
Preparation of EX 00000776 (MMF): 2.3 mg of EX 00000776 is dissolved in 530.5 μl of 100% DMSO at a concentration of 10 mM. The compound solution is then diluted to 5 mM in 100% DMSO. 5 mM of the compound solution is then diluted to 50 µM in HEPES-Tyrode BSA buffer, making 10× stock solutions.
ADP is dissolved in distilled water at concentration of 100 mM. 100 mM ADP are further diluted in HEPES-Tyrode BSA buffer to 10 mM and then secondarily diluted to 100 μM in HEPES-Tyrode BSA buffer, making a 10× stock.
Eighty or forty microliters of PRP is added into a well of a 1 ml deep well plate containing 560 μl or 280 μl of HEPES-Tyrode BSA buffer. Eighty or forty microliters of the 10× compound solution is added per well and incubated at 37° C./5% CO2 for 30 mins prior to addition of ADP. Eighty or forty microliters of 100 μM ADP is added per well and the plate incubated at 37° C./5% CO2 for 5 mins. After 5 minutes of incubation, 300 microliters per well of stimulated PRP is transferred to a sterile 0.22 um PVDF 96-well filter plate. A 96 well microplate is placed under the filter plate to collect supernatant after centrifugation at 1100 rpm for 5 mins. […]

[2] = test system: bleomycin-induced pulmonary fibrosis; assay: Bleomycin-induced pulmonary fibrosis, therapeutic dosing; type: in vivo, C57Bl/6 mice
Experimental: Compounds and formulation: Compound: Compound 114 (sample ID 30295026), batch 5 and EX00076637 (EX76637/riociguat), sample ID 17810950, batch 5 are both dissolved in Methylcellulose solution. The concentration is 10 mg/kg, 3 mg/kg and 1 mg/kg in a volume of 0.1 ml p.o. Nintedanib ethanesulfonate is prepared freshly every second day. The concentration is 60 mg/kg in a volume of 0.1 ml p.o. Hydroxyproline assay: The amount of collagen protein in skin samples is determined via hydroxyproline assay. After digestion of full skin thickness punch biopsies (Ø 3 mm) derived from the upper back in 6 M HCl for three hours at 120° C., the pH of the samples is adjusted to 6 with 6 M NaOH. For lungs, the middle lobe is analyzed. Afterwards, 0.06 M chloramine T is added to each sample and incubated for 20 min at room temperature. Next, 3.15 M perchloric acid and 20% p-dimethylaminobenzaldehyde are added and samples are incubated for additional 20 min at 60° C. The absorbance is determined at 557 nm with a Spectra MAX 190 microplate spectrophotometer using a standard curve generated with purified type I collagen (Sigma-Aldrich). In the model of bleomycin-induced lung fibrosis, fibrosis is induced by a single intratracheal injection of 50 μl bleomycin at day 0. Mice injected with equal volumes of 0.9% NaCl served as controls. The outcome is analyzed after 28 days. Treatment is started at day 15 post intratracheal installation of bleomycin and thus at a timepoint, when fibrosis is already preestablished. […] Histological evaluation of pulmonary fibrosis: Whole lungs are excised, fixed in 4% formalin for 6 h and embedded in paraffin. […] are cut and stained with Sirius Red. Images are captured using a Hamamatsu nano sumo S60 slide scanner microscope (Hamamatsu, Herrsching am Ammersee, Germany). Histological changes of pulmonary fibrosis are quantified by Ashcroft Scoring. The analysis is performed in a blinded manner. […] Statistics: All data are presented as median ±range, and differences between the groups are tested for their statistical significance by Mann-Whitney U non-parametric test for non-related samples.

[3] = test system: bleomycin-induced dermal fibrosis; type: in vivo
[4] = test system: primary human microvascular endothelial cells; assay: Hypoxia assay: hypoxia induced TGFβ2 production (MSD ELISA); type: cell-based
Experimental: The assay uses the following materials and reagents: • Human dermal microvascular endothelial cells are obtained from (Lonza, 2543). • All experiments are performed with cells between passage 4 and passage 8. […]
Culturing endothelial cells: Dermal endothelial cells from each of the indicated donors are grown in T175 flasks with normal culturing media in 37° C./5% CO2 incubator. […] Cells are counted and plated into new T175 for further expansion or plated for the experiment as described in the protocol below. […]
• Day 0: Cells are trypsinized, counted and plated such that each well contains 8×10^3 cells and 100 μl of media and put in an incubator overnight (37° C.) • Day 1: Media is aspirated and replaced with basal media left at 37° C. overnight-24 hours • Day 2: Basal media is replaced with 90 μL of fresh basal media. […]
After treatment plates are left in 37° C. […] Supernatant is collected and TGFβ2 μlevels are measured using MSD ELISA.
Dermal microvascular endothelial cells from three normal donors are plated and grown to confluence. […] Cells and supernatants are collected after 48 hours and TGFβ2 μlevels are measured by MSD-ELISA. MSD plates are read using the MSD QuickPlex SQ 120 Instrument. […]

[5] = treatment initiated two weeks after instillation of bleomycin until end of experiment
[6] = 60 mg/kg qd for the last three weeks, vs bleomycin/vehicle mice

SMILES: COC(=O)N(C)c1c(N)nc(-c2nn(Cc3ccccc3F)c3ncccc23)nc1N [riociguat]
- effect on ADP-induced CXCL4 production ([1]; doses equivalent to Compound 114, 10 μM ADP): minimal effect; also recorded: Minimal to no effect

SMILES: COC(=O)N(C)c1c(N)nc(-c2nn(Cc3ccccc3F)c3ncccc23)nc1N [EX76637, riociguat]
- bleomycin-induced pulmonary fibrosis ([2]; 1 mg/kg bid p.o.): also ameliorated bleomycin-induced pulmonary fibrosis
- bleomycin-induced dermal fibrosis ([3]; doses of 1 mg/kg): also ameliorated bleomycin-induced dermal fibrosis
- effects on dermal fibrosis compared with Compound 114 ([3]; doses of 1 mg/kg): comparable to those of Compound 114

SMILES: COC(=O)c1ccc2c(c1)NC(=O)/C2=C(\Nc1ccc(N(C)C(=O)CN2CCN(C)CC2)cc1)c1ccccc1 [nintedanib, Nintedanib ethanesulfonate]
- Ashcroft scores [2, 5]: reduced
- collagen-covered area [2, 5]: reduced
- hydroxyproline content (lung) [2, 5]: reduced
- effect on ADP-induced CXCL4 production ([1]; standards of care, 10 μM ADP): ineffective; also recorded: Minimal to no effect
- dermal thickness [3, 6]: reduced
- hydroxyproline content (skin) [3, 6]: lower
- myofibroblast counts [3, 6]: decreased

SMILES: CCOc1c(C(=O)O)cnn1-c1cccc(-c2cccc(C)c2OCc2ccc3c(c2C)CCN(C2CCOCC2)C3)n1 [Compound 114]
- fibrotic readouts of pulmonary fibrosis ([2]; doses of 1, 3 or 10 mg/kg): significantly improved the fibrotic readouts
- dose trend for the Ashcroft score ([2]; doses of 1, 3 or 10 mg/kg, differences did not reach statistical significance): tendency towards more pronounced effects with higher doses
- hypoxia-driven TGFβ2 production, statistical significance of reduction ([4]; 10 μM Compound 114, hypoxia 1% O2): Statistically significant reduction
- hypoxia-induced TGFβ2 production ([4]; hypoxia 1% O2, 48 hrs, ODQ, supernatant, cells from 3 donors): inhibits hypoxia-induced TGFβ2 levels; also recorded: reduced hypoxia-driven TGFβ2 production in a concentration-dependent manner
- ADP-induced CXCL4 production ([1]; 0.1 μM, 10 μM ADP): reduced ADP-induced CXCL4 production in 9 out of 10 donors
- ADP-induced CXCL4 production ([1]; 1 μM and 10 μM, 10 μM ADP): attenuated the ADP-induced CXCL4 production in all 10 donors
- ADP-induced CXCL4 production, percentage of Max of all donors ([1]; 10 μM, 1 μM, 0.1 μM, 10 μM ADP, compared to ADP/DMSO): significantly reduced ADP-induced CXCL4 production in a dose-dependent manner
- potency/efficacy on ADP-induced CXCL4 production relative to nintedanib, mycophenolate (MMF) and riociguat ([1]; FIG. 5): more potent/more efficacious
- bleomycin-induced dermal fibrosis ([3]; doses of 1, 3 or 5 mg/kg for the last two weeks): also ameliorated bleomycin-induced dermal fibrosis
- effects on dermal fibrosis compared with nintedanib ([3]; doses of 1, 3 or 5 mg/kg vs nintedanib 60 mg/kg qd): within the range of those observed with nintedanib
- dose-dependency of effect on dermal fibrosis ([3]; doses of 1, 3 or 5 mg/kg, trends for dermal thickness and myofibroblast counts): no clear dose-dependency was observed
